Reference: US11325938B2, “CD73 inhibitors” (ORIC Pharmaceuticals, Inc., priority 2018, dated 2022)

Target: CD73 (Homo sapiens (Human), UniProt P21589)
Experiment: Biochemical assay: inhibition of CD73 activity (AMP hydrolysis, Malachite Green readout)
Settings: CD73 0.3208 nM, AMP 15 μM, 25 mM Tris-HCl pH 7.4, RT, absorbance 620 nm
How it was run: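 Human CD73 (320 pM final) preincubated 15 min at RT with compounds (10-point ½-log titration from 100 μM, duplicates) in 25 mM Tris-HCl pH 7.4, 5 mM MgCl2, 0.01% Brij-35, 0.01% BSA. 15 μM AMP added, 10 min at RT; released phosphate read by Malachite Green absorbance; IC50 determined.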

Sequence of CD73 (P21589 27-574): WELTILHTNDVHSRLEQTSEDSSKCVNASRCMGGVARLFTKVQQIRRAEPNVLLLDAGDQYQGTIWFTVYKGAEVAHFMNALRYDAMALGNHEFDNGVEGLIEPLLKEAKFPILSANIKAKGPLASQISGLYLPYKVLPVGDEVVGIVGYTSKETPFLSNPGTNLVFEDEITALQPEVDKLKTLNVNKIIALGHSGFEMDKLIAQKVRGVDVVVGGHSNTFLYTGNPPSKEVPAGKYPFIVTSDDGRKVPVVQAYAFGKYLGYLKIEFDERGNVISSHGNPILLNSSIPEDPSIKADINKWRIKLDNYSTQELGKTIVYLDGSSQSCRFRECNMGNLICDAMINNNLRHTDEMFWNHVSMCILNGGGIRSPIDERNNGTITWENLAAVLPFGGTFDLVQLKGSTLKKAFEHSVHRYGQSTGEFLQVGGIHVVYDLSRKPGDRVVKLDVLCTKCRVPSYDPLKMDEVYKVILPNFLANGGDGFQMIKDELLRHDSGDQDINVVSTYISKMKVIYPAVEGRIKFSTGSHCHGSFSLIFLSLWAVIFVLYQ

Compound | IC50 [nM]
C[C@](CO)(OC[C@H]1O[C@@H](n2ncc3c(NC4CCC4)nc(Cl)nc32)[C@H](O)[C@@H]1O)P(=O)(O)O [Example 102, ((S)-2-(((2R,3S,4R,5R)-5-(6-chloro-4-(cyclobutylamino)-1H-pyrazolo[3,4-d]pyrimidin-1-yl)-3,4-dihydroxytetrahydrofuran-2-yl)methoxy)-1-hydroxypropan-2-yl)phosphonic acid] | ≤ 100
O=P(O)(O)C(CO)OC[C@H]1O[C@@H](n2cnc3c(NC4CCCC4)nc(Cl)nc32)[C@H](O)[C@@H]1O (stereo partly drawn) [Example 75, (1-(((2R,3S,4R,5R)-5-(2-chloro-6-(cyclopentylamino)-9H-purin-9-yl)-3,4-dihydroxytetrahydrofuran-2-yl)methoxy)-2-hydroxyethyl)phosphonic acid] | ≤ 100
CCS(=O)(=O)C[C@](C)(OC[C@H]1O[C@@H](n2ncc3c(NC4CCCC4)nc(Cl)nc32)[C@H](O)[C@@H]1O)P(=O)(O)O [Example 137, ((R)-2-(((2R,3S,4R,5R)-5-(6-chloro-4-(cyclopentylamino)-1H-pyrazolo[3,4-d]pyrimidin-1-yl)-3,4-dihydroxytetrahydrofuran-2-yl)methoxy)-1-(ethylsulfonyl)propan-2-yl)phosphonic acid] | ≤ 100
O=P(O)(O)C(CO)(CO)OC[C@H]1O[C@@H](n2ncc3c(NCc4ccc(Cl)cc4)nc(Cl)nc32)[C@H](O)[C@@H]1O (racemic) [Example 201, rac-(2-(((2R,3S,4R,5R)-5-(6-chloro-4-((4-chlorobenzyl)amino)-1H-pyrazolo[3,4-d]pyrimidin-1-yl)-3,4-dihydroxytetrahydrofuran-2-yl)methoxy)-1,3-dihydroxypropan-2-yl)phosphonic acid] | ≤ 100
COCC(C)(OC[C@H]1O[C@@H](n2nnc3c(NC4CCCC4)nc(Cl)nc32)[C@H](O)[C@@H]1O)P(=O)(O)O (stereo partly drawn) [Example 82, (2-(((2R,3S,4R,5R)-5-(5-chloro-7-(cyclopentylamino)-3H-[1,2,3]triazolo[4,5-d]pyrimidin-3-yl)-3,4-dihydroxytetrahydrofuran-2-yl)methoxy)-1-methoxypropan-2-yl)phosphonic acid] | ≤ 100
O=P(O)(O)[C@@H](CO)OC[C@H]1O[C@@H](n2nnc3c(NC4CCCC4)cc(Cl)nc32)[C@H](O)[C@@H]1O [Example 149, ((S)-1-(((2R,3S,4R,5R)-5-(5-chloro-7-(cyclopentylamino)-3H-[1,2,3]triazolo[4,5-b]pyridin-3-yl)-3,4-dihydroxytetrahydrofuran-2-yl)methoxy)-2-hydroxyethyl)phosphonic acid] | ≤ 100
COCCOc1nc(NC2CCCC2)c2cnn([C@@H]3O[C@H](COC(C)(CO)P(=O)(O)O)[C@@H](O)[C@H]3O)c2n1 (stereo partly drawn) [Example 145, (2-(((2R,3S,4R,5R)-5-(4-(cyclopentylamino)-6-(2-methoxyethoxy)-1H-pyrazolo[3,4-d]pyrimidin-1-yl)-3,4-dihydroxytetrahydrofuran-2-yl)methoxy)-1-hydroxypropan-2-yl)phosphonic acid] | ≤ 100
COCC(COC)(OC[C@H]1O[C@@H](n2ncc3c(NC4CCC4)nc(Cl)nc32)[C@H](O)[C@@H]1O)P(=O)(O)O (racemic) [Example 174, rac-(2-(((2R,3S,4R,5R)-5-(6-chloro-4-(cyclobutylamino)-1H-pyrazolo[3,4-d]pyrimidin-1-yl)-3,4-dihydroxytetrahydrofuran-2-yl)methoxy)-1,3-dimethoxypropan-2-yl)phosphonic acid] | ≤ 100
O=P(O)(O)C(CO)(CO)OC[C@H]1O[C@@H](n2ncc3c(NC4CCCC4)cc(Cl)nc32)[C@H](O)[C@@H]1O (racemic) [Example 200, rac-(2-(((2R,3S,4R,5R)-5-(6-chloro-4-(cyclopentylamino)-1H-pyrazolo[3,4-b]pyridin-1-yl)-3,4-dihydroxytetrahydrofuran-2-yl)methoxy)-1,3-dihydroxypropan-2-yl)phosphonic acid] | ≤ 100
NC(=O)OCC(CO)(OC[C@H]1O[C@@H](n2ncc3c(NC4CCCC4)nc(Cl)nc32)[C@H](O)[C@@H]1O)P(=O)(O)O (mixture of isomers) [Example 178, rac-(1-(carbamoyloxy)-2-(((2R,3S,4R,5R)-5-(6-chloro-4-(cyclopentylamino)-1H-pyrazolo[3,4-d]pyrimidin-1-yl)-3,4-dihydroxytetrahydrofuran-2-yl)methoxy)-3-hydroxypropan-2-yl)phosphonic acid] | ≤ 100
COC[C@](C)(OC[C@H]1O[C@@H](n2nnc3c(NC4CCCC4)nc(Cl)nc32)[C@H](O)[C@@H]1O)P(=O)(O)O [Example 110, ((R)-2-(((2R,3S,4R,5R)-5-(5-chloro-7-(cyclopentylamino)-3H-[1,2,3]triazolo[4,5-d]pyrimidin-3-yl)-3,4-dihydroxytetrahydrofuran-2-yl)methoxy)-1-methoxypropan-2-yl)phosphonic acid] | ≤ 100
COC[C@@](C)(OC[C@H]1O[C@@H](n2nnc3c(NC4CCCC4)nc(Cl)nc32)[C@H](O)[C@@H]1O)P(=O)(O)O [Example 109, ((S)-2-(((2R,3S,4R,5R)-5-(5-chloro-7-(cyclopentylamino)-3H-[1,2,3]triazolo[4,5-d]pyrimidin-3-yl)-3,4-dihydroxytetrahydrofuran-2-yl)methoxy)-1-methoxypropan-2-yl)phosphonic acid] | ≤ 100
C[C@@](CO)(OC[C@H]1O[C@@H](n2nnc3c(NC4CCCC4)cc(Cl)nc32)[C@H](O)[C@@H]1O)P(=O)(O)O [Example 139, ((R)-2-(((2R,3S,4R,5R)-5-(5-chloro-7-(cyclopentylamino)-3H-[1,2,3]triazolo[4,5-b]pyridin-3-yl)-3,4-dihydroxytetrahydrofuran-2-yl)methoxy)-1-hydroxypropan-2-yl)phosphonic acid] | ≤ 100
CC(COCCO)(OC[C@H]1O[C@@H](n2ncc3c(NC4CCCC4)nc(Cl)nc32)[C@H](O)[C@@H]1O)P(=O)(O)O (stereo partly drawn) [Example 85, (2-(((2R,3S,4R,5R)-5-(6-Chloro-4-(cyclopentylamino)-1H-pyrazolo[3,4-d]pyrimidin-1-yl)-3,4-dihydroxytetrahydrofuran-2-yl)methoxy)-1-(2-hydroxyethoxy)propan-2-yl)phosphonic acid] | ≤ 100
C[C@@](Cc1nn[nH]n1)(OC[C@H]1O[C@@H](n2ncc3c(NC4CCCC4)nc(Cl)nc32)[C@H](O)[C@@H]1O)P(=O)(O)O [Example 119, ((R)-2-(((2R,3S,4R,5R)-5-(6-chloro-4-(cyclopentylamino)-1H-pyrazolo[3,4-d]pyrimidin-1-yl)-3,4-dihydroxytetrahydrofuran-2-yl)methoxy)-1-(2H-tetrazol-5-yl)propan-2-yl)phosphonic acid] | ≤ 100
O=P(O)(O)C(CO)(COCC(F)(F)F)OC[C@H]1O[C@@H](n2ncc3c(NC4CCCC4)nc(Cl)nc32)[C@H](O)[C@@H]1O (mixture of isomers) [Example 207, rac-(2-(((2R,3S,4R,5R)-5-(6-chloro-4-(cyclopentylamino)-1H-pyrazolo[3,4-d]pyrimidin-1-yl)-3,4-dihydroxytetrahydrofuran-2-yl)methoxy)-1-hydroxy-3-(2,2,2-trifluoroethoxy)propan-2-yl)phosphonic acid] | ≤ 100
CCOCC(CO)(OC[C@H]1O[C@@H](n2ncc3c(NC4CCCC4)nc(Cl)nc32)[C@H](O)[C@@H]1O)P(=O)(O)O (mixture of isomers) [Example 169, rac-(2-(((2R,3S,4R,5R)-5-(6-chloro-4-(cyclopentylamino)-1H-pyrazolo[3,4-d]pyrimidin-1-yl)-3,4-dihydroxytetrahydrofuran-2-yl)methoxy)-1-ethoxy-3-hydroxypropan-2-yl)phosphonic acid] | ≤ 100
CC#CC[C@](CO)(OC[C@H]1O[C@@H](n2ncc3c(NC4CCCC4)nc(Cl)nc32)[C@H](O)[C@@H]1O)P(=O)(O)O [Example 98, ((S)-2-(((2R,3S,4R,5R)-5-(6-chloro-4-(cyclopentylamino)-1H-pyrazolo[3,4-d]pyrimidin-1-yl)-3,4-dihydroxytetrahydrofuran-2-yl)methoxy)-1-hydroxyhex-4-yn-2-yl)phosphonic acid] | ≤ 100
O=P(O)(O)COC[C@H]1O[C@@H](n2nnc3c(NCC4CC4)cc(Cl)nc32)[C@H](O)[C@@H]1O [Example 21, ((((2R,3S,4R,5R)-5-(5-chloro-7-((cyclopropylmethyl)amino)-3H-[1,2,3]triazolo[4,5-b]pyridin-3-yl)-3,4-dihydroxytetrahydrofuran-2-yl)methoxy)methyl)phosphonic acid] | ≤ 100
O=P(O)(O)[C@@](CO)(COCc1ccccc1)OC[C@H]1O[C@@H](n2ncc3c(NC4CCCC4)nc(Cl)nc32)[C@H](O)[C@@H]1O (racemic) [Example 180, rac-((R)-1-(benzyloxy)-2-(((2S,3R,4S,5S)-5-(6-chloro-4-(cyclopentyalmino)-1H-pyrazolo[3,4-d]pyrimidin-1-yl)-3,4-dihydroxytetrahydrofuran-2-yl)methoxy)-3-hydroxypropan-2-yl)phosphonic acid] | ≤ 100
O=P(O)(O)CS(=O)(=O)C[C@H]1O[C@@H](n2ncc3c(NC4CCCC4)cc(Cl)nc32)[C@H](O)[C@@H]1O [Example 162, (((((2S,3S,4R,5R)-5-(6-chloro-4-(cyclopentylamino)-1H-pyrazolo[3,4-b]pyridin-1-yl)-3,4-dihydroxytetrahydrofuran-2-yl)methyl)sulfonyl)methyl)phosphonic acid] | ≤ 100
CC(C)(O)C#Cc1nc(NC2CCCC2)c2cnn([C@@H]3O[C@H](COC(CO)(CO)P(=O)(O)O)[C@@H](O)[C@H]3O)c2n1 (racemic) [Example 224, rac-(2-(((2R,3S,4R,5R)-5-(4-(cyclopentylamino)-6-(3-hydroxy-3-methylbut-1-yn-1-yl)-1H-pyrazolo[3,4-d]pyrimidin-1-yl)-3,4-dihydroxytetrahydrofuran-2-yl)methoxy)-1,3-dihydroxypropan-2-yl)phosphonic acid] | ≤ 100
